Measured values reported in patent publication US20050009057A1, “Assay for detecting the presence of processing inhibitory antibodies against the Apical Membrane Antigen-1 of Plasmodium falciparum in biological samples” (priority 2003, published 2005).
Where two headings read alike, the source gives them in different places.

Legend:
[1] = tested on: P. falciparum schizonts; assay: Giemsa stained thin smears after rupture cycle (schizont maturation, PCM); type: cell-based, Plasmodium falciparum; conditions: for Protease inhibitor Clusters of Merozoites (PCM) on giemsa stained slides / schizont maturation / development on giemsa stained thin smears: inhibitor concentrations as in FIG. 6A
Description: (§1) Protease inhibitors. Protease inhibitors were tested for their effect on AMA-1 processing. All inhibitors were from Sigma Chemicals. PMSF, pepstatin and TPCK were dissolved in 100% ethanol. Antipain, leupeptin, and 1,10-phenanthroline stocks were made in water. EDTA and EGTA stocks were made in PBS (pH adjusted to 7.2), TLCK was prepared in 1 mM HCl, E64 and chymostatin were prepared in DMSO. All stocks were at 100× concentration. 1.5 μl of the protease inhibitor or its respective solvent control was added to 15 μl PBS and then 135 μl of (1×10^7/ml) Percoll purified mid-stage schizonts were added. The processing assay was carried out as described above. Parallel assay with protease inhibitors was carried out in two similarly prepared plates to which RBC were also added to a final 4% hematocrit. Parasites in the first plate were allowed to invade in suspension at 37° C. and thin smears were prepared after the rupture cycle for giemsa staining and examination for the presence of Protease inhibitor Clusters of Merozoites (PCM) (Lyon and Haynes, 1986, J. Immunol. 136, 2245-2251). In the second plate parasites (135 μl of 5×10^6/ml schizonts+RBC at 4% hematocrit) were incubated overnight and ring forms were quantitated by flow cytometry as a measure of parasite invasion (Haynes et al., 2002, supra).

[2] = tested on: P. falciparum merozoite invasion of RBC; assay: microbe, parasite or virus in culture; type: cell-based, Plasmodium falciparum; conditions: for inhibition of RBC invasion: 1 mM
Description: as §1

[3] = tested on: PfAMA-1 processing on merozoites; assay: AMA-1 processing assay / processing inhibition assay (PIA), western blot; type: cell-based, P. falciparum clone 3D7; conditions: for accumulation of PfAMA-1 66: FIG. 6A, 6B; for formation of trapped PfAMA-1 52 and PfAMA-1 48+44: with trapping antibodies (1:2500 anti-AMA-1 sera pool)
Description: AMA-1 processing assay, or processing inhibition assay (PIA). P. falciparum clone 3D7 cultures were prepared as described previously (Haynes and Moch, 2002, Methods Mol. Med. 72, 489-497), culture media included 10% heat inactivated normal human serum in bicarbonate-containing RPMI 1640 containing final 0.42 mM Ca^+2 and 0.40 mM Mg^+2. Fifteen microliters of heat inactivated rabbit serum (dialyzed against RPMI 1640 or used directly after heat inactivation) or purified IgG or Fab fragments was mixed with 135 μl of synchronized (Haynes and Moch, 2002, supra), Percoll-alanine purified (Kanaani and Ginsburg, 1989, J. Biol. Chem. 264, 3194-3199), mid-stage (˜8 nuclei), >90% pure schizonts (1×10^7 per ml) in a 48 well culture plate. PBS was used as a diluent if necessary. The plate was placed in a plastic bag, gassed with 5% O2-5% CO2, heatsealed, and incubated at 37° C. for ˜6 h (Haynes et al., 2002, Methods Mol. Med. 72, 535-554). Aliquots from a control culture flask were taken to monitor the percent rupture of schizonts by hemocytometer. After ˜90% schizonts had ruptured, the contents of each well were transferred to a microfuge tube and centrifuged at 10,000× g for 5 min. The supernatant was aspirated and the resulting parasite pellet was washed with 0.5 ml chilled PBS and centrifuged as before. The supernatant was discarded and 150 μl of 1× NuPAGE sample buffer (Invitrogen) was added to the tubes, samples were frozen at −30° C. until analyzed. Soluble forms of AMA-1 were immuno-precipitated from the processing assay culture supernatants or from culture supernatant of routinely maintained parasites using MagnaBind Goat anti-Rabbit IgG coated Magnetic Beads (Pierce). Two types of western blots have been used to detect AMA-1 fragments. First set of westerns in FIGS. 1 to 6 have been developed using biotinylated polyclonal IgG against recombinant AMA-1. A second set of western blots, FIG. 6 onwards, has been developed using two biotinylated primary antibodies, mAb 28G2dc1 (1:1000) and polyclonal anti-AMA-1 IgG (1:1000) used simultaneously in order to immunostain all the AMA-1 specific fragments on the blot.
as §1
PAGE and Western blotting. Samples were briefly sonicated with a microtip sonicator, heated at 80° C. for 2 min, spun down and 16 μl was applied per well to a precast 4-12% gradient polyacrylamide gel (NuPAGE Bis-Tris; Invitrogen). Samples were run under non-reduced conditions unless specified. DTT at 50 mM was added to samples resolved under reduced conditions. Proteins from the gel were electrophoretically transferred to nitrocellulose membrane and blocked with 5% BSA in PBS containing 0.05% Tween-20 overnight at 4° C. […]

[4] = EDTA, EGTA 1 mM (2-0.25 mM in dose response)

Row | Compound | Protease inhibitor Clusters of Merozoites (PCM) on giemsa stained slides [1] | formation of trapped PfAMA-1 52 and PfAMA-1 48+44 [3] | schizont maturation / development on giemsa stained thin smears [1] | further results
1 | CC(C)C[C@H](NC(=O)[C@H]1O[C@@H]1C(=O)O)C(=O)NCCCCN=C(N)N [E64] | PCM's were observed |  |  | 
2 | O=C(O)CN(CCN(CC(=O)O)CC(=O)O)CC(=O)O [EDTA] |  | inhibited the formation of only PfAMA-148+44 |  | schizont rupture [1]: did not affect schizont rupture; inhibition of RBC invasion [2]: ~40%; accumulation of PfAMA-1 66 [3, 4]: caused accumulation of PfAMA-166
3 | CC(C)C[C@H](NC(=O)[C@@H](NC(=O)N[C@@H](Cc1ccccc1)C(=O)O)[C@@H]1CCN=C(N)N1)C(=O)N[C@H](C=O)Cc1ccccc1 [chymostatin] | PCM's were observed | formation of both PfAMA-152 and PfAMA-148+44 were inhibited | did not block schizont development | inhibition at 100 µM ([2]; Plasmodium falciparum, read-out: inhibition of merozoite invasion): > 90%; accumulation of PfAMA-1 66 ([3]; chymostatin 100-12.5 μM): found to accumulate
4 | Cc1ccc(S(=O)(=O)N[C@@H](Cc2ccccc2)C(=O)CCl)cc1 [TPCK] |  |  | interrupted schizont maturation | 
5 | O=C(O)CN(CCOCCOCCN(CC(=O)O)CC(=O)O)CC(=O)O [EGTA] |  | inhibited the formation of only PfAMA-148+44 |  | schizont rupture ([1]; 1 mM): did not affect schizont rupture; inhibition of RBC invasion [2]: ~20%; accumulation of PfAMA-1 66 [3, 4]: caused accumulation of PfAMA-166
6 | c1cnc2c(c1)ccc1cccnc12 [1,10-phenanthroline] |  |  | interrupted schizont maturation | 
7 | CC(=O)N[C@@H](CC(C)C)C(=O)N[C@@H](CC(C)C)C(=O)N[C@H](C=O)CCCNC(=N)N [leupeptin] | PCM's were observed |  |  | 
8 | Cc1ccc(S(=O)(=O)N[C@@H](CCCCN)C(=O)CCl)cc1 [TLCK] |  |  | interrupted schizont maturation | 
9 | O=S(=O)(F)Cc1ccccc1 [PMSF] |  |  | interrupted schizont maturation | 
